From PubChem BioAssay AID1963962 (Molecular Pharmacology Branch, DTP, NCI, 2024)

Test system: 967376-340-R-J2-PDC multicell spheroid viability
Assay: Anticancer human tumor 967376-340-R-J2-PDC patient-derived colon adenocarcinoma cell line growth inhibition [PI3K]
Conditions: for IC50: curve of first compound; for viability, T/C: stronger effect = lower value; active means viability on the fitted dose curve at most 10% of control; inactive means the rest
Summary of the method: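 Complex 3D spheroids (cancer cells + endothelial HUVEC + mesenchymal stem cells); drug pairs of targeted agent x inavolisib/alpelisib/duvelisib/copanlisib; half-log series from ~Cmax, max 10 microM if Cmax unknown; endpoint viability.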
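Further: spheroids exposed to agents for 7 days before read-out.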
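Wherever viability, T/C is given: luminescence used as surrogate of cell viability.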

CC1(C)CCC(Nc2ncc(C(F)(F)F)c(-c3c[nH]c4c(P(C)(C)=O)c(C#N)ccc34)n2)CN1 (configuration not stated) + COc1c(OCCCN2CCOCC2)ccc2c3n(c(=NC(=O)c4cnc(N)nc4)nc12)CCN3
> 10 µM: IC50 (second compound 0.00316 µM)
9.47 µM: IC50 (second compound 0.01 µM)
< 0.0316 µM: IC50 (second compound 0.316 µM) | IC50 (second compound 1 µM)
0.196 µM: IC50 (second compound 0.1 µM)
3.06 µM: IC50 (second compound 0.0316 µM)
inactive: viability, T/C (second compound 0.00316 µM, first compound 0.0316 µM) 84.5% | viability, T/C (second compound 0.00316 µM, first compound 0.1 µM) 81.8% | viability, T/C (second compound 0.00316 µM, first compound 0.316 µM) 80.2% | viability, T/C (second compound 0.00316 µM, first compound 1 µM) 80% | viability, T/C (second compound 0.00316 µM, first compound 3.16 µM) 66.2% | viability, T/C (second compound 0.00316 µM, first compound 10 µM) 59.6% | viability, T/C (second compound 0.01 µM, first compound 0.0316 µM) 79.7% | viability, T/C (second compound 0.01 µM, first compound 0.1 µM) 77.4% | viability, T/C (second compound 0.01 µM, first compound 0.316 µM) 75.2% | viability, T/C (second compound 0.01 µM, first compound 1 µM) 75.5% | viability, T/C (second compound 0.01 µM, first compound 3.16 µM) 61.9% | viability, T/C (second compound 0.01 µM, first compound 10 µM) 49.4% | viability, T/C (second compound 0.0316 µM, first compound 0.0316 µM) 69.9% | viability, T/C (second compound 0.0316 µM, first compound 0.1 µM) 84% | viability, T/C (second compound 0.0316 µM, first compound 0.316 µM) 73.8% | viability, T/C (second compound 0.0316 µM, first compound 1 µM) 66.5% | viability, T/C (second compound 0.0316 µM, first compound 3.16 µM) 49.4% | viability, T/C (second compound 0.0316 µM, first compound 10 µM) 45.9% | viability, T/C (second compound 0.1 µM, first compound 0.0316 µM) 72.3% | viability, T/C (second compound 0.1 µM, first compound 0.1 µM) 47.6% | viability, T/C (second compound 0.1 µM, first compound 0.316 µM) 54.1% | viability, T/C (second compound 0.1 µM, first compound 1 µM) 45.5% | viability, T/C (second compound 0.1 µM, first compound 3.16 µM) 43.7% | viability, T/C (second compound 0.1 µM, first compound 10 µM) 36.5% | viability, T/C (second compound 0.316 µM, first compound 0.0316 µM) 49.4% | viability, T/C (second compound 0.316 µM, first compound 0.1 µM) 45% | viability, T/C (second compound 0.316 µM, first compound 0.316 µM) 37.3% | viability, T/C (second compound 0.316 µM, first compound 1 µM) 38.4% | viability, T/C (second compound 0.316 µM, first compound 3.16 µM) 36.6% | viability, T/C (second compound 0.316 µM, first compound 10 µM) 22.3% | viability, T/C (second compound 1 µM, first compound 0.0316 µM) 32% | viability, T/C (second compound 1 µM, first compound 0.1 µM) 27.4% | viability, T/C (second compound 1 µM, first compound 0.316 µM) 34% | viability, T/C (second compound 1 µM, first compound 1 µM) 30.7% | viability, T/C (second compound 1 µM, first compound 3.16 µM) 27.1% | viability, T/C (second compound 1 µM, first compound 10 µM) 20.9%
